Like-named read-outs stand apart in the source and are kept apart here.
What was measured:
[1] = tested on: bloodstream form T. brucei; assay: Growth inhibition of wild type / control bloodstream form T. brucei (resazurin); type: cell-based
T. cruzi epimastigotes = assay: Growth inhibition of T. cruzi epimastigotes (resazurin); type: cell-based; details: for EC50: Trypanosoma cruzi, 336 h, read-out: T. cruzi EC50
L. major promastigotes = assay: Growth inhibition of L. major promastigotes (resazurin); type: cell-based; details: for EC50: read-out: L. major EC50
RH1^RC1 T. brucei = assay: microbe, parasite or virus in culture; type: cell-based; details: for EC50: read-out: EC50 RH1^RC1;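 on ratio (fold difference in EC50 between RH1^RC1 and wild type): resistant clone selected by stepwise exposure to the aziridinyl benzoquinone prodrug in culture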
[2] = tested on: differentiated THP‐1 cells; assay: Mammalian inhibition assay, differentiated THP-1 cells; type: cell-based; details: Homo sapiens, read-out: THP‐1 EC50
[3] = tested on: T. brucei over expressing TbNTR (Tbntr++); assay: microbe, parasite or virus in culture; type: cell-based; details: for EC50: Trypanosoma brucei, read-out: EC50 Tbntr++
[4] = tested on: T. brucei over expressing TbCPR2 (Tbcpr2++); assay: microbe, parasite or virus in culture; type: cell-based; details: for EC50: Trypanosoma brucei, read-out: EC50 Tbcpr2++
[5] = tested on: T. brucei Tbsnm1 null mutants (ΔTbsnm1); assay: microbe, parasite or virus in culture; type: cell-based; details: for EC50: Trypanosoma brucei, read-out: EC50 ΔTbsnm1
[6] = tested on: mouse peritoneal macrophages; assay: Toxicity to mouse peritoneal macrophages (cell counts, Giemsa); type: cell-based, BALB/c mice; details: Peritoneal macrophage, 120 h, read-out: EC50 towards mouse peritoneal macrophages
[7] = tested on: T. brucei Tbntr heterozygote line; type: cell-based
RH1^RC2 T. brucei = assay: microbe, parasite or virus in culture; type: cell-based; details: read-out: EC50 RH1^RC2
[8] = tested on: ΔTbsnm1 Tbntr++ T. brucei; type: cell-based
Wild type T. brucei = type: cell-based
[9] = Trypanosoma brucei, 72 h, bloodstream form, 3 days, Table 1, activity of some compounds previously reported (Hall et al., 2012), read-out: T. brucei EC50
[10] = Leishmania major, 144 h, promastigotes, 6 days
[11] = Trypanosoma brucei, 72 h, read-out: T. brucei EC50
[12] = Selectivity Index: fold difference in EC50 of THP‐1 line relative to parasite
[13] = Trypanosoma brucei, Table 2, parasites expressing wild type levels, read-out: EC50 Control
[14] = Trypanosoma brucei, Table 4, wild type T. brucei, read-out: EC50 Control
[15] = 72 h, differentiated THP‐1 cells, 3 days
[16] = Trypanosoma brucei, read-out: EC50 Control

Compound `O=C1C(F)=C(N2CC2)C(=O)C(F)=C1N1CC1` [ABQ4] has an EC50 [1, 9] of 1.18 ± 0.16 µM, an EC50 (T. cruzi epimastigotes; epimastigotes, 14 days) of 0.106 ± 0.025 µM and an EC50 (L. major promastigotes; [10]) of 0.663 ± 0.006 µM.

With `CCOC(=O)NC1=C(N2CC2)C(=O)C(NC(=O)OCC)=C(N2CC2)C1=O` [AZQ] the EC50 [1, 11] was 8.23 ± 0.272 µM, the EC50 (T. cruzi epimastigotes) was 6 ± 0.283 µM and the EC50 (L. major promastigotes; Leishmania major, 144 h) was greater than 10 µM.

For `O=C(Cn1ccnc1[N+](=O)[O-])NCc1ccccc1` [benznidazole], the “Susceptibility of RH1 selected (RH1^RC) lines relative to wild type” value (RH1^RC1 T. brucei) was “cross‐resistance”.

For `C[C@@H]1CN1C1=CC(=O)C(N2C[C@H]2C)=CC1=O` [ABQ23], the “T. brucei SI” value [1, 12] was less than 1, the EC50 [1, 9] was 2.3 ± 0.06 µM and the EC50 [1, 13] was 2.94 ± 0.42 µM. For the same compound, the EC50 [1, 14] was 2.3 ± 0.06 µM, the “T. cruzi SI” value (T. cruzi epimastigotes) was less than 1 and the EC50 (T. cruzi epimastigotes; epimastigotes, 14 days) was 2.18 ± 0.67 µM. For the same compound, the EC50 (L. major promastigotes; [10]) was 0.348 ± 0.166 µM, the EC50 [2, 15] was less than 0.4 µM and the “Fold difference in EC50 Tbntr++ relative to control” value [3] was 3315 ± 540 (1.13). The EC50 [3] was 3.31 µM, the “Fold difference in EC50 Tbcpr2++ relative to control” value [4] was 3556 ± 96 (1.21) and the EC50 [4] was 3.56 µM. The “Ratio of EC50 values ΔTbsnm1 / control” value [5] was 1.01, the “Susceptibility of Tbsnm1 null mutants relative to wild type / control (fold more susceptible)” value [5] was “no significant difference” and the EC50 [5] was 2.41 ± 0.16 µM.

In the case of `CC(C)NC1=C(N2CC2)C(=O)C(NC(C)C)=C(N2CC2)C1=O` [ABQ13], the EC50 [1, 11] is reported as greater than 10 µM, the EC50 (T. cruzi epimastigotes) is reported as 5.55 ± 0.24 µM and the EC50 (L. major promastigotes; Leishmania major, 144 h) is reported as greater than 10 µM.

`CC1=C(N2CC2)C(=O)C(CO)=C(N2CC2)C1=O` [RH1] was tested, and the “T. brucei SI” value [1, 12] was less than 5, the EC50 [1, 13] was 0.019 ± 0.001 µM and the EC50 ([1]; Trypanosoma brucei, Table 3, BSF T. brucei wild type, read-out: EC50 Wild type) was 0.025 ± 0.006 µM. For the same compound, the EC50 [1, 14] was 0.019 ± 0.001 µM, the inhibition at 0.005 µM ([1]; Trypanosoma brucei, 5 nM) was roughly 10% and the “Growth of wild type T. brucei” value ([1]; medium containing RH1 (40 nM), after 24 hrs) was “no growth”. For the same compound, the “T. cruzi SI” value (T. cruzi epimastigotes) was less than 33, the “L. major SI” value (L. major promastigotes) was less than 1 and the EC50 (L. major promastigotes; [10]) was less than 0.1 µM. For the same compound, the “L. major EC50” value (L. major promastigotes; promastigotes, 6 days) was “high potency”, the EC50 (L. major promastigotes; promastigotes, 6 days) was 0.068 ± 0.001 µM and the EC50 [2, 15] was less than 0.1 µM. For the same compound, the EC50 ([6]; non‐cancerous primary cells, up to 5 days) was less than 0.1 µM, the “Fold difference in EC50 Tbntr++ relative to control” value [3] was 3 ± 1 (0.16 ) and the “Susceptibility of TbNTR over expressing T. brucei relative to controls / wild type (fold more susceptible)” value [3] was “fivefold”. For the same compound, the EC50 [3] was 0.003 µM, the “Fold difference in EC50 Tbcpr2++ relative to control” value [4] was 20 ± 3 (1.05) and the EC50 [4] was 0.02 µM. The “EC50 of Tbntr heterozygote line relative to wild type (fold greater)” value [7] was “approximately 2.5 fold”, the “Doubling time of resistant clones” value (RH1^RC1 T. brucei) was roughly 10.5 h and the “Fold less sensitive, RH1^RC lines versus controls” value (RH1^RC1 T. brucei) was roughly 4.5 fold. For the same compound, the “Fold less sensitive, RH1^RC lines versus wild type” value (RH1^RC1 T. brucei) was roughly 3.5 fold, the “ratio (fold difference in EC50 between RH1^RC1 and wild type)” value (RH1^RC1 T. brucei) was 3.3 and the EC50 (RH1^RC1 T. brucei; Trypanosoma brucei) was 0.086 ± 0.003 µM. It also gave an EC50 (RH1^RC1 T. brucei) of 0.083 ± 0.002 µM, an EC50 (RH1^RC2 T. brucei; Trypanosoma brucei) of 0.091 ± 0.011 µM and an EC50 (RH1^RC2 T. brucei) of 0.092 ± 0.001 µM. The “Ratio of EC50 values ΔTbsnm1 / control” value [5] was 0.26, the “Susceptibility of Tbsnm1 null mutants relative to wild type / control (fold more susceptible)” value [5] was “threefold” and the EC50 [5] was 0.005 ± 0.001 µM. The “Fold increase in susceptibility of ΔTbsnm1 Tbntr++ versus wild type” value [8] was 15 fold, the “Cells in G1/S phase (1N1K)” value (Wild type T. brucei) was 37% and the “Cells in G2/M phase (1N2K)” value (Wild type T. brucei) was 58%.

Compound `CC1(C)CN1C1=C(Br)C(=O)C(N2CC2(C)C)=C(Br)C1=O` [ABQ26] has an EC50 [1, 11] greater than 10 µM, an EC50 (T. cruzi epimastigotes) of 8.64 ± 0.736 µM and an EC50 (L. major promastigotes; Leishmania major, 144 h) of 2.36 ± 0.23 µM.

Work on `O=C1C(Br)=C(N2CC2)C(=O)C(Br)=C1N1CC1` [ABQ3] yielded an EC50 [1, 9] of 0.4 ± 0.03 µM, an EC50 (T. cruzi epimastigotes; epimastigotes, 14 days) of 6.2 ± 1.16 µM and an EC50 (L. major promastigotes; [10]) of 0.199 ± 0.004 µM.

`NC(=O)c1cc(N2CC2)c([N+](=O)[O-])cc1[N+](=O)[O-]` [CB1954, reference compound] was tested, and the EC50 ([1]; Trypanosoma brucei, read-out: EC50 Wild type) was 2.16 ± 0.125 µM and the EC50 (RH1^RC1 T. brucei; Trypanosoma brucei) was 13.1 ± 0.972 µM.

In the case of `CCCOC1=C(N2CC2)C(=O)C(OCCC)=C(N2CC2)C1=O` [ABQ8], the “T. brucei SI” value [1] is reported as 4, the EC50 [1, 11] is reported as 0.67 ± 0.03 µM and the “T. cruzi SI” value (T. cruzi epimastigotes) is reported as 2. The EC50 (T. cruzi epimastigotes) was 1.3 ± 0.108 µM, the “L. major SI” value (L. major promastigotes) was 2 and the EC50 (L. major promastigotes; Leishmania major, 144 h) was 1.87 ± 0.184 µM. It also gave an EC50 ([2]; THP-1, 72 h) of 2.95 ± 0.77 µM.

`CCC(=O)NC1=C(N2CC2C)C(=O)C(NC(=O)CC)=C(N2CC2C)C1=O` (stereo not drawn) [ABQ33] was tested, and the EC50 [1, 11] was greater than 10 µM, the EC50 (T. cruzi epimastigotes) was greater than 10 µM and the EC50 (L. major promastigotes; Leishmania major, 144 h) was 8.157 ± 0.08 µM.

`O=C1C=C(N2CC2)C(=O)C(N2CC2)=C1N1CC1` [TZQ] was tested, and the “T. brucei SI” value [1] was less than 1, the EC50 [1, 11] was 0.179 ± 0.001 µM and the EC50 [1, 16] was 0.225 ± 0.026 µM. For the same compound, the EC50 ([1]; read-out: EC50 Control) was 0.253 ± 0.033 µM, the “T. cruzi SI” value (T. cruzi epimastigotes) was less than 33 and the “L. major SI” value (L. major promastigotes) was less than 11. For the same compound, the EC50 ([2]; THP-1, 72 h) was less than 0.1 µM, the EC50 [6] was less than 0.1 µM and the “Fold difference in EC50 Tbntr++ relative to control” value [3] was 60 ± 9 (0.27 ). The EC50 [3] was 0.06 µM, the “Fold difference in EC50 Tbcpr2++ relative to control” value [4] was 284 ± 13 (1.26) and the EC50 [4] was 0.284 µM. For the same compound, the “Ratio of EC50 values ΔTbsnm1 / control” value [5] was 0.18, the “Susceptibility of Tbsnm1 null mutants relative to wild type / control (fold more susceptible)” value [5] was 2.7 fold and the EC50 [5] was 0.046 ± 0.001 µM. For the same compound, the “Fold increase in susceptibility of ΔTbsnm1 Tbntr++ versus wild type” value [8] was 15 fold.

In the case of `CC1(C)CN1C1=C(F)C(=O)C(N2CC2(C)C)=C(F)C1=O` [ABQ30], the “T. brucei SI” value [1] is reported as less than 1, the EC50 [1, 11] is reported as 7.4 ± 0.19 µM and the EC50 [1, 16] is reported as 7.4 ± 0.19 µM. For the same compound, the “T. cruzi SI” value (T. cruzi epimastigotes) was 4, the EC50 (T. cruzi epimastigotes) was 0.98 ± 0.025 µM and the “L. major SI” value (L. major promastigotes) was 22. For the same compound, the EC50 (L. major promastigotes; Leishmania major, 144 h) was 0.174 ± 0.01 µM, the EC50 ([2]; THP-1, 72 h) was 3.75 ± 0.32 µM and the “Fold difference in EC50 Tbntr++ relative to control” value [3] was 8670 ± 1670 (1.12). For the same compound, the EC50 [3] was 8.67 µM.

In the case of `CC(=O)NC1=C(N2CC2)C(=O)C(NC(C)=O)=C(N2CC2)C1=O` [ABQ15], the EC50 [1, 11] is reported as greater than 10 µM, the EC50 (T. cruzi epimastigotes) is reported as 3.31 ± 0.2 µM and the EC50 (L. major promastigotes; Leishmania major, 144 h) is reported as greater than 10 µM.

From paper PMC5656836, “Distinct activation mechanisms trigger the trypanocidal activity of DNA damaging prodrugs” (Molecular Microbiology, 2017)
